One data set relates to HEK293T. Put plainly: MTT cytotoxicity, human kidney HEK293T cells. The format is cell-based. As to the method:
(§1) The cytotoxicity of the metabolites to human liver cells and kidney cells was determined using an MTT based-In Vitro Toxicology Assay Kit (Sigma-Aldrich, St. Louis, MO, USA) following the manufacturing instructions. The human kidney HEK293T cells and the human liver HEPGZ cells were used for the evaluation in this study. Both cell samples were maintained and suspended in Dulbecco's Modified Eagle Medium (DMEM with 4.5 g/L glucose, L-glutamine and sodium pyruvate, Corning, Manassas, VA, USA) containing 10% fetal bovine serum (Thermo Scientific) and 1% penicillin/streptomycin at 37° C. under 5% CO2 atmosphere. The cells were plated on a 96-well plate with approximately 5×10^3-1×10^4 cells in each well, and incubated at 37° C. overnight. […] After that, the liquid in each well of the plate was removed carefully and thoroughly, then the cells in the wells were treated with 100 μL of DMSO, and incubated at 37° C. for 15 m. […] Bio Tek Instruments, Inc. Winooski VT). Cells treated with vancomycin, a common option for treating CDI in clinical settings, were also included in the MTT tests as a control. Cell survival and the IC50 were calculated according to the method used in a previous publication: Survival of cells (%)=Drug-treated group OD540/control group OD540×100.

A further data set concerns HepG2. In words: MTT cytotoxicity, human liver HepG2 cells. It counts as cell-based. As to the method:
as §1

In data set [1] the test system is ESKAPE panel of bacterial pathogens. Put plainly: ESKAPE panel antibacterial screen. The format is cell-based.
The subject of the next data set is J774.A1 macrophages. Put plainly: Cytotoxicity screen against Leishmania host cell line. The settings on record: toxicity to J774.A1 macrophages. The format is cell-based. The procedure:
The Leishmania donovani infected macrophage assay and cytotoxicity screen were conducted as previously described.

A further data set relates to C. difficile UK6. Put plainly: C. difficile MIC screening. The format is cell-based, Clostridium difficile.
Data set [2] has as its system liver stage of Plasmodium falciparum. The settings on record: previous investigation; cited from earlier work.

The text below walks through data of patent US20260130966A1, “NOVEL THERAPEUTICS FOR PARASITIC INFECTION” (UNIVERSITY OF SOUTH FLORIDA, priority 2022, published 2026).

Each structure is given as a SMILES string. Values after ≈ are worked out from the molar mass of the structure shown. Where a SMILES comes first, the peptide text is derived from it. [ ]: non-standard residue; d: D form. The star is where a group is joined. NMeI = CC[C@H](C)[C@H](NC)C(=O)O; X1 = CN(/C=C\c1c[nH]c2ccccc12)*; NMeV = CN[C@H](C(=O)O)C(C)C; NMeA = CN[C@@H](C)C(=O)O

A word on the CC50: it is the concentration giving 50% cytotoxicity. What is called IC50 is the concentration needed to halve the response being measured. As usually defined, the MIC is the lowest concentration that inhibits growth of the organism. A higher MIC goes with a need for much substance. Consider `Cc1cc2c(c3c1[C@@H](CO)OC3=O)CC(C)(C)C2` [Compound C3, alcyopterosin V], for which the figures for the CC50 with HEK293T and in the data set with HepG2 were 220 µM and 288 µM, respectively. The “activity against the ESKAPE panel” value in data set [1] is “inactive”. Inhibition in the data set on J774.A1 macrophages was half-maximal at 110 µM (IC50). The “activity against Clostridium difficile” value with C. difficile UK6 is reported as “potent activity”. In the data set on C. difficile UK6 (C. difficile), this compound gave a minimum inhibitory concentration (MIC) of 8.1 µM (≈ 2 µg/mL).
On to `Cc1cc2c(c3c1[C@H](CO[N+](=O)[O-])OC3=O)CC(C)(C)C2` [Compound C4, alcyopterosin E], for which the CC50 with HEK293T stood at 570 µM; in the data set on HepG2, 331 µM. For the same compound, the “activity against the ESKAPE panel” value in data set [1] was “inactive”. Further, in the data set with J774.A1 macrophages, the IC50 amounted to 62 µM. For the same compound, the “activity against Clostridium difficile” value in the data set on C. difficile UK6 is recorded as “potent activity”.
Turning to `CC[C@H](C)[C@@H](C(=O)N(C)/C=C\c1c[nH]c2ccccc12)N(C)C(=O)[C@H]([C@@H](C)CC)N(C)C(=O)[C@H](C)N(C)C(=O)[C@H](C(C)C)N(C)C(=O)[C@H](Cc1ccccc1)NC(C)=O` [Compound P1, friomaramide A] (Ac-F[NMeV][NMeA][NMeI][NMeI]-X1), in data set [2], the “blocking of liver stage parasite development” value is “comparable to the known drug primaquine”.
